For series [1], the system named is SNU—C4 3xFLAG-PXR KI cell lines stably expressing HA-tagged GSPT1^G575N. In words: Cytotoxicity assay in cells overexpressing degradation-resistant GSPT1 mutant. Type of series: cell-based, human. To be noted: FIG. 7B-C. On the procedure:
Complete information for all plasmids is included in Table 1 below. […] Lentiviruses for pCDH-GSPT1 or pCDH-GSPT1^G575N were generated in 293T cells using psPAX2 and pMD2.G packaging vectors. The packaging vectors were gifts from Dr. Didier Trono (Addgene plasmid #12259 and 12260).
(§1) The indicated cells (2.5×10^3/well in 40 μL RPMI with 10% FBS) were plated in the 384-well plates, resulting in 0.5% DMSO and the indicated concentrations of chemicals. After 72 h compound treatment, the CellTiter-Glo Luminescent Cell Viability Assay (Promega) and an EnVision microplate reader were used to assess cytotoxicity. Wells containing DMSO alone or 10 μM staurosporine served as negative and positive controls, respectively. The percent cell viability for each well was calculated using equation 1: […]

The next series addresses T1, GSPT1 (Homo sapiens, UniProt P15170+Q96SW2).
T1 construct: endogenous in cells
Briefly: Western blot of GSPT1 protein in SNU—C4 3xFLAG-PXR KI cells. It is filed as cell-based. As for the experimental part: (§2) The following day, DMSO or compounds were added to result in 0.5% DMSO and the indicated compound concentrations, and cells were incubated for the indicated time points. Cells were lysed and subjected to western blotting as above using antibodies against FLAG (Sigma-Aldrich, cat. #F3165, 1:2,000 dilution), GSPT1 (Abcam, cat. #ab126090, 1:4,000 dilution), and R-Actin (Cell Signaling Technology, cat. #4967, 1:2,000 dilution).
For orientation: In western blotting, separated proteins are transferred to a membrane and probed.

For series [2], the target named is T2, PXR (Homo sapiens, UniProt O75469).
T2 sequence (O75469 1-434): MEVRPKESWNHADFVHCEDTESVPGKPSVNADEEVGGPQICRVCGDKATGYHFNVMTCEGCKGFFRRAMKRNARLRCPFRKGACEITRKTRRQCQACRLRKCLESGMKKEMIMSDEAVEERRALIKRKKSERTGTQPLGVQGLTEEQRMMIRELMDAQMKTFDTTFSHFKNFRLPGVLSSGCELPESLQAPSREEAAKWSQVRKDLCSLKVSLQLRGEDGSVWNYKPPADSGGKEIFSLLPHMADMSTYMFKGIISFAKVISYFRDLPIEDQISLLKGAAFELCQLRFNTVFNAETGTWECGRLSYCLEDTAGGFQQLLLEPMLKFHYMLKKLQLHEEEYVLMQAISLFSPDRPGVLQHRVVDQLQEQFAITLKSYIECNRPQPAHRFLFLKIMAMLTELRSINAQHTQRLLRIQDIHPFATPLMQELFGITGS
In words: cell-based hPXR antagonistic assay.

For the next series, the target named is T3, HiBiT-FKBP12^F36V-PXR (Homo sapiens, UniProt O75469+P62942, F37V).
T3 construct: expressed in transfected cells; host or cells: HepG2 cells (transient, Lipofectamine 3000)
T3 sequence (P62942+O75469 fused P62942:F37V): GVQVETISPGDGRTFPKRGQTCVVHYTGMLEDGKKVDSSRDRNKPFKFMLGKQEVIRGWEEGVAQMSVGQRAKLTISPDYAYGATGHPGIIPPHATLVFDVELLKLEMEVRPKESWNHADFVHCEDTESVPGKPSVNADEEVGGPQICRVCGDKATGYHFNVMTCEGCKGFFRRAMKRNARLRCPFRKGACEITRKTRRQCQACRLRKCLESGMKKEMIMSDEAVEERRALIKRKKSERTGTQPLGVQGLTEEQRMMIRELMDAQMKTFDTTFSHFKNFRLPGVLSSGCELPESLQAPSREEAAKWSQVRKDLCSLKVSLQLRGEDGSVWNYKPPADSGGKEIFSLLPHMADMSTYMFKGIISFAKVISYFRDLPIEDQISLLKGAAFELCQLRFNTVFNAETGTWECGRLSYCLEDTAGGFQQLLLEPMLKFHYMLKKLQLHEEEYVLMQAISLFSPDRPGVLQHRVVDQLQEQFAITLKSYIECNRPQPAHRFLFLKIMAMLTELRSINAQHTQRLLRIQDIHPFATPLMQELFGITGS
T3 sequence (Q96SW2 whole entry partner): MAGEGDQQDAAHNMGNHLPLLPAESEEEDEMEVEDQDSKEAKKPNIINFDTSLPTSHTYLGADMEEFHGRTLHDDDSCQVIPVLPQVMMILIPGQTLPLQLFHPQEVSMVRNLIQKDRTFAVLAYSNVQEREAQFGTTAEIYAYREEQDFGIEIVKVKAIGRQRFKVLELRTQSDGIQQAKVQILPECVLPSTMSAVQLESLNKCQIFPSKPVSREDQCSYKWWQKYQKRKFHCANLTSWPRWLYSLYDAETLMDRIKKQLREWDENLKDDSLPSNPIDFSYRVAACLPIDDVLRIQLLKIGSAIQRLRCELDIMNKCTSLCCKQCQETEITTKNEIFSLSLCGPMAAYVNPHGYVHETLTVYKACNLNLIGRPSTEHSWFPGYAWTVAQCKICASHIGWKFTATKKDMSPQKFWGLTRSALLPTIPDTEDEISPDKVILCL
Briefly: HiBiT assay for degradation of overexpressed protein in HepG2 cells. It is filed as cell-based. To be noted: HepG2, HiBiT-FKBP12^F36V-PXR, 24 h, FIG. 4A. As for the experimental part:
HepG2 cells (5×10^6 cells/dish) were plated in tissue culture-treated 10 cm dishes in 10 mL EMEM with 10% FBS. The next day, cells were transfected with 5 μg pcDNA3-HiBiT-FKBP^F36V-2xHA-PXR and either 5 μg pcDNA3 vector or 5 μg pcDNA3-HA-CRBN using Lipofectamine 3000 (Thermo Fisher Scientific). After 24 h, cells were trypsinized, resuspended in assay media, and plated in white tissue culture-treated 384-well plates (1.5×10^4 cells/well in 25 μL medium). […] The plates were incubated for 24 h, and the Nano-Glo HiBiT Lytic Detection System (Promega) and an EnVision microplate reader were used to measure HiBiT signal. Results are reported as fold change relative to DMSO control cells.
To establish a method for discovery of PXR degraders in the absence of a known PXR-degrading control, the degradation tag (dTAG) system was used. With this method, a protein of interest (PXR) is fused to a cytosolic prolyl isomerase, FKBP12, with Phe36 mutated to Val (FKBP12^F36V) (FIG. 2A). A PROTAC molecule, dTAG-13 (FIG. 2B), is then used to induce degradation of the fusion protein through recruitment of the CUL4-RBX1-DDB1-CRBN (CRL4^CRBN) E3 ubiquitin ligase, without affecting the cellular FKBP12 protein. An HA tag was added for western blot detection, and a HiBiT tag was fused to the N-terminus to allow high-throughput plate-based quantification of HiBiT-FKBP12^F36V-PXR protein levels (FIG. 2A). […] This was also observed when the HA tag was detected by western blot (FIG. 2D). The HiBiT detection was more sensitive to protein level changes than western blot, and, importantly, overexpression of CRBN was required to achieve dTAG-13-mediated degradation of the overexpressed HiBiT-FKBP12^F36V-PXR protein.
(HiBiT is a short tag that completes a luciferase, so light tracks the accessible tagged protein.)

The target in series [3] is T2, PXR. In words: Western blot of endogenous 3xFLAG-PXR protein in SNU—C4 3xFLAG-PXR KI cells. Further details: To assess SJPYT-195 activity against endogenous PXR, CRISPR-Cas9 was used; endogenous in cells. Type of series: cell-based. As for the experimental part:
as §2

Series [4] relates to SNU—C4 3xFLAG-PXR KI cells. In words: Cytotoxicity assay (CellTiter-Glo, 72 h). It is filed as cell-based, human. To be noted: SNU—C4 3xFLAG-PXR KI cells. On the procedure: as §1
Series [5] in a line: Cytotoxicity assay (CellTiter-Glo, 72 h). Type of series: cell-based, human. To be noted: human, SNU-C4 3xFLAG-PXR KI cells; read-out: half maximal cytotoxic concentration (CC50). On the procedure: as §1
On the technique in general: ATP-based viability assays read luminescence as a measure of living cells.

“Also recorded” adds a separate entry of the source.

The source of these data is patent US20260116867A1, “PROTEOLYSIS TARGETING CHIMERAS FOR HUMAN PREGNANE X RECEPTOR AND FOR DEGRADATION OF GSPT1” (ST. JUDE CHILDREN'S RESEARCH HOSPITAL, priority 2022, published 2026).

T1 sequence (P15170 1-637 isoform P15170-3): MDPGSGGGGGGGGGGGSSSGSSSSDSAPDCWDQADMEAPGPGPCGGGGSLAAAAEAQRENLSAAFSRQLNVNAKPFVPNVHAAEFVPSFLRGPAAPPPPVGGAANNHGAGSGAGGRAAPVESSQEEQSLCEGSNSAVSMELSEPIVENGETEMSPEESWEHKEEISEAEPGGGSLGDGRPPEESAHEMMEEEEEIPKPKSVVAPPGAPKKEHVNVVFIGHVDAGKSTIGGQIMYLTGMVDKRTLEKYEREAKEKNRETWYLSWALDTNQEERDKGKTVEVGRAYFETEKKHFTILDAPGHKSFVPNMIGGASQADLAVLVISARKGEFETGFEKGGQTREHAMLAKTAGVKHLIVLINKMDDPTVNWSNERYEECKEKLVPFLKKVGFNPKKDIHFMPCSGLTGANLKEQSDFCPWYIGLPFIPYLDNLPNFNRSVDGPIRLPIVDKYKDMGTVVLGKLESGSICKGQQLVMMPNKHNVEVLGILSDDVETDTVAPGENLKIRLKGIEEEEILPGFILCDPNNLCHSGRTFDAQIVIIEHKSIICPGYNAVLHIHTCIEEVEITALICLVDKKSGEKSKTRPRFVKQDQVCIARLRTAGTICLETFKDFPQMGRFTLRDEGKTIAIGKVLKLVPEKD
T1 sequence (Q96SW2 whole entry): as the sequence (Q96SW2 whole entry partner) above
T1 sequence (Q16531 whole entry partner): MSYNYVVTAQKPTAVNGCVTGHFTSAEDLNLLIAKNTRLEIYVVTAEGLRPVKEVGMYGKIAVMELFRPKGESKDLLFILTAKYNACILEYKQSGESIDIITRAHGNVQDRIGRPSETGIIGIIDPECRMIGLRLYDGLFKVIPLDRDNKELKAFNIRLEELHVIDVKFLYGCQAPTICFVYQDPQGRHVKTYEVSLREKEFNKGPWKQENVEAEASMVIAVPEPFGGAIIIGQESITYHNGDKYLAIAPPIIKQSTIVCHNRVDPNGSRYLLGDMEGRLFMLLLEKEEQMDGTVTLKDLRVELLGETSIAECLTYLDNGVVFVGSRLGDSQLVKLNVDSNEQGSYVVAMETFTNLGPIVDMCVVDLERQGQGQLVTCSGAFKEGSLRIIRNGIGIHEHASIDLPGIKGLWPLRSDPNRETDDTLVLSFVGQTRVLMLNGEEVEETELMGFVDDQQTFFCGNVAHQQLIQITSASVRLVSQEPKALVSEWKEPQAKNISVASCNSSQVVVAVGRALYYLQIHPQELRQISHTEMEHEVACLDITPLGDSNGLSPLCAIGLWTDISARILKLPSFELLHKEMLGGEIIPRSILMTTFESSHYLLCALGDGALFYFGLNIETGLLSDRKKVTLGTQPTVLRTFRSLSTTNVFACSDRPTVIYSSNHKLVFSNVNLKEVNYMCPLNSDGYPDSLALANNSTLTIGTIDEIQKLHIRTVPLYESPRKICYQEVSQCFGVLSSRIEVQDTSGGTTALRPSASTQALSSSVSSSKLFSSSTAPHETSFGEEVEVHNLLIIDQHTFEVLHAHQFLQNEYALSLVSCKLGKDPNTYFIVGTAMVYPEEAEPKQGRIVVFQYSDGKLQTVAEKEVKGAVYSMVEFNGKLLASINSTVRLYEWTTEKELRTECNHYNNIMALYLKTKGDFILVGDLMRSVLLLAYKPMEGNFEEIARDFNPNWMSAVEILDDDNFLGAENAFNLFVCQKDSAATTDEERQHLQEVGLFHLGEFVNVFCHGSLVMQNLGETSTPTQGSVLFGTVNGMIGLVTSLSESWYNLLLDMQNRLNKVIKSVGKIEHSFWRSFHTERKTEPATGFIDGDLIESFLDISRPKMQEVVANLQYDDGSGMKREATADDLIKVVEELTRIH

The inhibition is the percentage by which the read-out fell short of the control. Take `COc1ccc(OC)c(-n2nnc(C(=O)Nc3cc(Oc4cccc5c4C(=O)N(C4CCC(=O)NC4=O)C5=O)cc(C(C)(C)C)c3)c2C)c1` (centres unmarked) [Compound M4, N-(3-(tert-butyl)-5-((2-(2,6-dioxopiperidin-3-yl)-1,3-dioxoisoindolin-4-yl)oxy)phenyl)-1-(2,5-dimethoxyphenyl)-5-methyl-1H-1,2,3-triazole-4-carboxamide]: the “cytotoxicity in cells overexpressing GSPT1^G575N” value in series [1] is reported as “partially resistant”. Also, on GSPT1 (10 μM compound, calculated from western blots FIG. 9A), the “GSPT1 Loss at 10 μM (% ± SD)” value is on record as 100 ± 0.1%. Besides, on GSPT1 (western blot, FIG. 6D-E), the “activity on GSPT1, fold lower than that of CC-885” value is recorded as around 100 fold. Moreover, on GSPT1 (western blot, SNU—C4 3xFLAG-PXR KI cells, listed as SJPYT-195), the “GSPT1 degradation (in words)” value is reported as “deplete GSPT1 at concentrations much lower than those required to reduce PXR; also recorded: most potent inducer of GSPT1 degradation”. In addition, on PXR [2] (read-out: Antagonist (% inhibition at 10 μM)), the inhibition at 10 µM stood at 96%. Also, at PXR [2] (read-out: Antagonist (IC50/μM)), the IC50 stood at 0.94 ± 0.2 µM. Besides, the “HiBiT signal (screen of PXR ligand-CRBN ligand compounds)” value on HiBiT-FKBP12^F36V-PXR is listed as “reduced HiBiT signal”. The “reduction of PXR protein” value on PXR [3] (5 μM, 12 h) is listed as around 50%. Further, the “maximum degradation efficacy (DNax) of endogenous PXR protein” value on PXR [3] (SNU—C4 3xFLAG-PXR KI cells, FIG. 4B) is 85% ±1. Also, the DC50 on PXR [3] (SNU—C4 3xFLAG-PXR KI cells, FIG. 4B, read-out: half maximal degradation concentration (DC50) of endogenous PXR protein) was 0.31 ± 0.13 µM. Moreover, the “kinetics of PXR protein decrease” value at PXR [3] (time-course, FIG. 5A-B) is recorded as “quite slow”. Also, the “PXR protein level (in words)” value on PXR [3] (western blot, SNU—C4 3xFLAG-PXR KI cells) is given as “reduced PXR to a greater extent than CC-885”. In series [4], the “fold difference in CC50 values (CC-885 vs SJPYT-195)” value was 133 fold. Further, the CC50 at 72 h in series [5] was determined as 0.44 ± 0.08 µM.
